How the values were obtained:
CD4+ and CD8+ cells = assay: CD4/CD8 ratio in blood of peptide-treated NOD mice (flow cytometry); assay type: in vivo, mouse
Procedure: (§1) Peptides were designed based on the amino acid sequence of mouse CD154 protein (SEQ ID NO:1) in the SwissPro database. These pre-designed peptides were then ordered from as made-to-order by New England Peptide. The lyophilized peptides were suspended in phosphate buffered saline at 1 mg/ml. 100 μg of a particular peptide was then injected into the tail vein of 8-9 week old NOD mice. Control mice received 100 μl of phosphate buffered saline. This is well before the onset of diabetes, but after damage to pancreatic islets has begun. Three days after the initial injection, another 100 μg of peptide (or 100 μl of phosphate buffered saline in the case of the Control mice) was injected into the tail vein. Mice were then injected with peptide (or phosphate buffered saline) on a weekly basis. At 10 weeks of age, mice were monitored for diabetes, as indicated by a blood glucose level greater than 250 mg/dL for three consecutive days. During this time, blood was also taken from the tail vein, or by sub-mandibular venal puncture, and the level of CD4+ and CD8+ cells determined by flow cytometry using antibodies for CD4 protein and CD8 protein.

NOD mice = assay: Development of diabetes in NOD mice treated with CD154 peptides; assay type: in vivo, mouse; settings: 100 μg peptide into tail vein of 8-9 week old NOD mice, again after 3 days, then weekly; diabetes = blood glucose >250 mg/dL for three consecutive days
Procedure: as §1

EAE induced C57BL/6 mice = assay: EAE disease score in MOG35-55 induced C57BL/6 mice; assay type: in vivo, mouse
Excerpt: One group of mice-C57BL/6 mice from Taconic (Hudson, NY, USA) received KGYY6 (SEQ ID NO: 29) intravenous (IV) injections 3 days and 1 day prior to EAE induction, while another control group received a vehicle of phosphate buffered saline (PBS). EAE was then induced and the mice started to show symptoms on day 10, which is standard for these mice under these conditions. This is further depicted in FIG. 11. On days 13, 20, and 27, the KGYY6 group of mice receive a boost of peptide, while the other group again received PBS via IV injection. […] By day 13, there was a statistically significant difference that lasted throughout the experiment. In FIG. 11—*—asterisks—denote p-value: *—one asterisk is <0.05; **—two asterisks is <0.01; […] is <0.001; and ****—four asterisks is <0.0001. This is a two-way ANOVA with Sidak's multiple comparisons test. Arrows in above lines in FIG. 11 represent days −3, −1, 13, 20, and 27, which correspond to days on which the mice received the KGYY6. Mice were disease scored daily in this study as described in more detail below.
The EAE mouse model can be highly variable even when attempting to control all possible parameters. This variability in EAE may be due to seasonal variations as well as litter differences in the mice. In order to minimize litter-to-litter and seasonal variations, experiments and studies were performed that had 10 mice per group and the mice were randomly mixed once they arrived from the vendor. Female 10-12 week old C57BL/6 mice were immunized subcutaneously on the upper back/neck with 100 μl completely emulsified MOG35-55 peptide (50 μg in 50 μl PBS) and complete Freund's adjuvant (CFA; 75 μg M. Tuberculosis H37 RA (Becton Dickinson and Company (Franklin Lake, NJ, USA)) in 50 μl incomplete Freund's adjuvant (mineral oil)), followed by i.p. pertussis toxin (PT; 200 ng (Sigma-Aldrich® (St. Louis, MO, USA)) in 100 μl PBS) injections. Mice were then randomly assigned to a treatment cohort or vehicle control cohort. One cohort of mice received intravenous injections of the KGYY6 (SEQ ID NO: 29)—25 μg in 100 μl PBS per mouse on days −3, −1, 13, 20, and 27 as described above. Day 0 is the reference starting point for EAE induction. Another cohort received peptide on days −3, −1, 6, 11, 13, and 15. Vehicle control mice received injections of PBS.
All mice were monitored daily for disease and scored in the following manner: 0—no abnormalities; 0.5—clutching hind limbs; 1—limp tail or weak hind limbs and/or wobbly gait; 1.5—limp tail and clutching hind limbs; 2—limp tail and weak hind limbs and/or wobbly gait wherein the mouse supports itself and propels itself using hind limbs; 2.5—limp tail and weak hind limbs and/or wobbly gait wherein the mouse cannot support and propel itself using hind limbs, but the paws are moving. 3—limp tail and one weak hind limb, while the other hind limb is completely paralyzed wherein the mouse uses the weak hind limb to propel itself in some fashion. […] 5—complete paralysis of hind quarter and weak forelimb(s). The data are reported as the mean daily clinical score for all animals in each group. Mice reaching a level 5 or losing more than 20% of their bodyweight are euthanized.
For this study, a group of EAE induced mice were treated with KGYY6 via intravenous (IV) injections on days 11, 13, and 15. Another group of mice were pretreated on days −3 and −1, and received further treatments on days 6, 11, 13, and 15. […]

CD69 = CD69 expression on T cells from dLN and spleen of KGYY6 treated EAE mice; assay type: in vivo, mouse; settings: for number of Th40 cells expressing CD69: after 33 days
Procedure: In this study, the number of CD69 expressing cells were measured and determined in draining lymph nodes (dLN) and spleens harvested from EAE mice at the end of the studies as described in Examples 7, 8, and 9 and the administration of KGYY6, after 33 days.
Lymphocytes from dLN or spleen were stained and gated on the Th40 or conventional CD4 T cells then CD69 expression was analyzed.

CD62L = CD62L expressing T cells from dLN and spleen of KGYY6 treated EAE mice; assay type: in vivo, mouse; settings: Th40 and conventional CD4 T cells, versus PBS
Excerpt: L-selectins are expressed on T cells and, depending upon activation status, expression rapidly cycles between high and low levels, thus allowing cells to crawl to areas of inflammation, and to extravasate into the tissue. (Mao-Draayer, Y., et al., Clinical Immunol. 175:10-5, 2017; Butcher, E. C., et al., Science, 272 (5258): 60-6, 1997). CD62L is an L-selectin that has generally been associated with naïve T cells, given its importance in lymph node retention. (Chao, C. C., et al., J. Immunol., 159:1686, 1997; Tedder, T. F., et al., Behring Inst. Mitt., 92:165, 1993). Rather than considering CD62L as a biomarker for naïve T cells, it may be possible that CD62L may be involved in lymph node retention of potentially pathogenic effector cells. The number of CD62L expressing Th40 and conventional CD4 T cells from both spleens and dLN of KGYY6 treated mice were compared to mice treated with vehicle (PBS) only (the control).

intracellular cytokines = assay: Intracellular cytokine expression in Th40 and conventional CD4 T cells ex vivo from KGYY6 treated EAE mice; design: species or system mouse
Procedure: Intracellular cytokine expression profiles in Th40 and conventional CD4 T cells were examined immediately ex-vivo after 33 days and at the end of the study as described in Example 7.
Other cytokines, such as TNFα, IFNγ, IL-2, and IL-17A were unchanged in response to KGYY6 treatment in both cell types. […] Lymphocytes from dLN or spleen were stained and gated on the Th40 or conventional CD4 T cells then intracellular levels were analyzed. FIGS. 18A-D represent the Th40 cells from spleen. FIGS. 19A-D represent the Th40 cells from dLN. FIGS. 20A-D represent conventional CD4 T cells from the spleen. FIGS. 21A-D represent conventional CD4 T cells from dLN.

[1] = system: Th40 or conventional CD4 T cells; assay: Memory cell and Th40 cell levels in KGYY6 treated EAE mice; assay type: in vivo, mouse
Procedure: This study sought to determine whether treatment with KGYY6 had any effect on memory cell levels when administered as described in Example 7 above.
C57BL/6 mice were EAE induced then lymphocytes were stained and gated on Th40 or conventional CD4 T cells and effector and central memory cell levels analyzed in dLN (FIGS. 22A-22D) and spleen (FIGS. 23A-D). Significance was calculated by t-test.

CD40 = assay: FITC-conjugated KGYY6 staining of PBMC, dLN and splenic lymphocytes; assay type: binding, mouse
Excerpt: To confirm that KGYY6 binds to the intended target cells, peripheral blood was […], dLN lymphocytes, and splenic lymphocytes from mice at 6 and 13 days out from receiving the full EAE regimen. These cells were then stained with an FITC-conjugated KGYY6.
To confirm that the KGYY6 peptide binds specifically to CD40, PBMC was stained from C57BL/6 mice that have the CD154-interacting domain of CD40 knocked out (B6.CD40KO).
FIG. 24A is a dot plot of PBMC, dLN, and splenic lymphocytes that were harvested and then stained. […] CD40 with heat-mapping for KGYY6. Dot plots on the right are CD62L v. CD44 with heat-mapping for KGYY6. […] The results shown in FIG. 24A are from 6 days post EAE induction. FIG. 24B is a histogram depicting KGYY6 staining of B6.CD40KO, control, non-induced C57BL/6, and EAE-induced C57BL/6 mice, 6 and 13 days post induction. Data represents two mice at day 6, three mice at day 13, all with similar results.

[2] = Th40 and conventional CD4 T cells, dLN and spleen
[3] = spleen and dLN, Th40 or conventional CD4 T cells

CSCC[C@H](NC(=O)[C@@H](NC(=O)[C@H](Cc1ccc(O)cc1)NC(=O)[C@H](Cc1ccc(O)cc1)NC(=O)CNC(=O)[C@H](CCCCN)NC(=O)[C@H](CCCCN)NC(=O)[C@H](C)NC(=O)[C@H](Cc1c[nH]c2ccccc12)NC(=O)[C@H](CCC(N)=O)NC(=O)[C@H](CC(C)C)NC(=O)[C@@H](N)C(C)C)[C@@H](C)O)C(=O)N[C@@H](CCCCN)C(=O)N[C@@H](CO)C(=O)N[C@@H](CC(N)=O)C(=O)O [15-mer peptide, VLQWAKKGYYTMKSN]
compromise of the immune system as determined by the CD4/CD8 ratio (CD4+ and CD8+ cells): did not result in compromise of the immune system

AKKGYY [KGYY6, 6-amino acid core region of the 15-mer]
development of diabetes in NOD mice (NOD mice): significant effects on the development of diabetes
EAE disease course (EAE induced C57BL/6 mice; 25 μg IV on days -3, -1, 13, 20, 27, versus PBS control): significantly less severe
EAE disease course (EAE induced C57BL/6 mice; pretreated days -3, -1, further treatments days 6, 11, 13, 15, versus control): significantly less severe disease course
EAE disease severity, early versus later boosts (EAE induced C57BL/6 mice; pretreated, boosts from day 6 versus from day 13): overall less severe disease if the boosts started early
EAE disease course (EAE induced C57BL/6 mice; treat-at-symptom group, IV on days 11, 13, 15): less severe disease course compared to control
CD69 expressed per cell (CD69; Th40 cells from spleen, versus vehicle): significantly more CD69 per cell
CD69 expressed per cell (CD69; conventional CD4 T cells): did no change the amount of CD69 per cell
number of conventional CD4 T cells expressing CD69 (CD69; dLN and spleen, versus controls): increased by KGYY6 treatment
number of Th40 cells expressing CD69 (CD69; dLN, versus vehicle): increased
number of Th40 cells expressing CD69 (CD69; spleen, versus untreated): significantly greater number
number of CD62L expressing cells (CD62L): no difference in number of CD62L expressing cells
IFNγ (intracellular cytokines; [2]): unchanged
IL-2 (intracellular cytokines; [2]): unchanged
IL-17A (intracellular cytokines; [2]): unchanged
TNFα (intracellular cytokines; [2]): unchanged
intracellular IL-10 (intracellular cytokines; Th40 cells, dLN or spleen): no difference in intracellular IL-10 expression
intracellular IL-10 (intracellular cytokines; conventional CD4 T cells from dLN, day 33): increase in intracellular IL-10
Th40 cell population ([1]; EAE mice treated with KGYY6): did not cause a decrease in the Th40 cell population
CD44+CD62L+ (central memory) cell levels [1, 3]: no difference in the levels of those memory phenotypes
CD44+CD62L- (effector memory) cell levels [1, 3]: no difference in the levels of those memory phenotypes
staining of memory cells (CD62L versus CD44) (CD40; PBMC and spleen samples): stained primarily effector (CD44^+CD62L^−) and central memory (CD44^+CD62L^+) cells
staining of B6.CD40KO cells (CD40; PBMC, CD154-interacting domain of CD40 knocked out): did not stain the B6.CD40KO cells
staining of CD40- cells (CD40; PBMC, dLN, spleen): not the CD40^− cells
staining of CD4+CD40+ cells (CD40; PBMC, dLN, spleen, 6 and 13 days post EAE induction): stained the CD4^+CD40^+ cells
staining of memory cells (CD62L versus CD44) (CD40; dLN samples): more diffuse pattern in dLN samples
staining of C57BL/6 PBMC (CD40; non-induced and EAE-induced C57BL/6 mice): readily stained both the non-induced and EAE-induced C57BL/6 mice

KGYY (listed as Mus musculus)
EAE scores (EAE induced C57BL/6 mice; 4-mer administered prior to onset and then post onset, versus untreated mice): lower EAE scores compared to untreated mice

WAKKGYYTMK [10-mer]
development of diabetes in NOD mice (NOD mice): significant effects on the development of diabetes

Reference: US12472223B2, “Methods for reducing symptoms of multiple sclerosis using a six-amino acid long peptide that inhibits CD40-CD154 interaction” (OP-T LLC, priority 2019, dated 2025)
